Experimental data published in PMC12291762 (Antioxidants, 2025).

Legend:
COX-1 = target: T1, COX-1 (Ovis aries, UniProt P05979); experiment: Fluorometric COX-1 inhibitor screening kit; format: biochemical; set-up: purchased Abcam ab204698; settings: mean ± standard error, three independent measurements
T1 sequence (P05979 25-600): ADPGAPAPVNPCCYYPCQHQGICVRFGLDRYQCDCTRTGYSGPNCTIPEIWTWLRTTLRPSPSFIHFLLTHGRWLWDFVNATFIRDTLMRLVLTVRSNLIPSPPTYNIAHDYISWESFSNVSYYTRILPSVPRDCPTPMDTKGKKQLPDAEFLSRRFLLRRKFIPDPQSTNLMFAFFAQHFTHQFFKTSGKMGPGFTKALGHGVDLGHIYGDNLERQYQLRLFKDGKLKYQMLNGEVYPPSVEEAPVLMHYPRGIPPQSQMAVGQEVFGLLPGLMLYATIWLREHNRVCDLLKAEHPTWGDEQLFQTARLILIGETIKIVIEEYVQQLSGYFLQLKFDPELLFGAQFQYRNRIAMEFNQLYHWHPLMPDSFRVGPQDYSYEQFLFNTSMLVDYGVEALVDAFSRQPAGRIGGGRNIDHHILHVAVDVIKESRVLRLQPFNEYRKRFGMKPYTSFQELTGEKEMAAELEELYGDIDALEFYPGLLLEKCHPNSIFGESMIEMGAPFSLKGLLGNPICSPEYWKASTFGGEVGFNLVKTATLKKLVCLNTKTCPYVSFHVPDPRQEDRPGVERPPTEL
Description: The inhibitory activity of the tested compounds against COX-1 and COX-2 isoforms was assessed using fluorometric cyclooxygenase inhibitor screening kits (Catalog Numbers ab204698 and ab283401, respectively; Abcam, Cambridge, UK). These assays detect the formation of prostaglandin G2, a product of COX enzymatic activity, via fluorometric measurement.
Stock solutions of the test compounds were prepared at a concentration of 5 mM in DMSO and subsequently diluted with the same solvent to obtain the test solutions. For the assay preparation, 2 μL of each test solution was diluted with 8 μL of COX assay buffer. The solvent control (SC) consisted of 2 μL of DMSO and 8 μL of assay buffer, while the enzyme control (EC) contained 10 μL of assay buffer alone. Sample wells (S) received 10 μL of the diluted test solutions. All other steps were in accordance with the manufacturer’s protocol and the previously published article. […] The percentage of inhibition was calculated as follows:(3) % Relative Inhibition=Slope of EC−Slope of S/Slope of EC×100
Fluorescence measurements were conducted on a BioTek Synergy LX multi-mode reader (Winooski, VT, USA).

[1] = system: carrageenan-induced rat paw edema; experiment: Carrageenan-induced rat paw edema model of acute inflammation; format: in vivo, Wistar albino rats; settings: for % of inhibition of paw edema, 1 h / Rat paw thickness, 1 h / % of inhibition of paw edema, 2 h / Rat paw thickness, 2 h / % of inhibition of paw edema, 3 h / Rat paw thickness, 3 h / % of inhibition of paw edema, 4 h / Rat paw thickness, 4 h / Anti-inflammatory effect on edema diameter compared to the control group (significance): 0.0315 mmol/kg i.p.; for % of inhibition of paw edema, 1 h / % of inhibition of paw edema, 2 h / % of inhibition of paw edema, 3 h / % of inhibition of paw edema, 4 h: vs solvent group; for Rat paw thickness, 1 h: 1 h post-carrageenan; for Rat paw thickness, 1 h / Rat paw thickness, 2 h / Rat paw thickness, 3 h / Rat paw thickness, 4 h / Rat paw thickness, 0 h: mean ± SD; for Rat paw thickness, 2 h: 2 h post-carrageenan; for Rat paw thickness, 3 h: 3 h post-carrageenan; for Rat paw thickness, 4 h: 4 h post-carrageenan; for Anti-inflammatory effect on edema diameter compared to the control group (significance): from 2nd hour to end of observation; for Rat paw thickness, 0 h: immediately before inflammation induction
Description: Inflammation was induced in all rats by an intraplantar injection of 100 μL of freshly prepared 1% carrageenan solution in distilled water into the left hind paw. A total of 56 male Wistar albino rats were randomly divided into five experimental groups (n = 40 rats, 8 rats per subgroup) and two control groups (n = 16 rats, 8 rats per subgroup).
The experimental groups consisted of rats that received synthesized compounds via intraperitoneal injection immediately following carrageenan administration. The solutions of the investigated molecules were prepared by dissolving the compound in distilled water with the addition of a few drops of Tween 80 [18], whereby each rat received 500 μL of the prepared solution. […] The negative control group included rats that received an intraperitoneal injection of the solvent solution (distilled water with a few drops of Tween 80) at the same time point.
To quantify the anti-edematous effect, the thickness of the left paw tissue of each rat was measured at specific time intervals: immediately before inflammation induction (moment 0) and at 1, 2, 3, and 4 h post-induction (moments 1, 2, 3, and 4, respectively). Tissue thickness was assessed in the middle of the rat paw using a digital vernier caliper (Aerospace, Beijing, China).

[2] = system: systemic oxidative stress parameters; experiment: Systemic redox state (plasma, erythrocyte lysate) 24 h after carrageenan; format: in vivo, Wistar albino rats
Description: Following 24 h of carrageenan-induced paw edema inflammation model and intraperitoneal anesthesia induced by ketamine/xylazine (100/10 mg/kg of BW), the animals were sacrificed, while whole-blood samples and edema-affected paw tissues were isolated. After centrifugation of whole blood, plasma and erythrocyte lysate samples were separated for further examination of the applied compounds’ effects on the systemic redox balance state. Pro-oxidative markers including superoxide anion radical (O2∙^−), hydrogen peroxide (H2O2) nitrites (NO2^−), and index of lipid peroxidation measured as thiobarbituric acid (TBA) reactive substances (TBARS) were determined from plasma samples, while the antioxidant capacity, including superoxide dismutase (SOD) and catalase (CAT) activity, as well as the reduced glutathione (GSH) level were examined in erythrocyte lysate samples [46]. […] Edema-affected paw tissue samples were weighed (100 mg) and homogenized (OmniPrep™ multi-sample homogenizer, Omni International, Kennesaw, GA, USA) in 900 µL phosphate buffer on ice (pH = 7.4), and centrifuged at 12,000 rpm for 20 min. These supernatant samples were used for the determination of the aforementioned pro-oxidative and antioxidative parameters levels. All oxidative stress analyses were performed spectrophotometrically using a Shimadzu UV 1800 spectrophotometer (Kyoto, Japan).
Determination of the O2∙^− level was conducted by adding 950 µL of a Nitro Blue Tetrazolium (NBT) mixture with TRIS buffer in 50 µL of sample, measured at the 550 nm wavelength. The level of H2O2 was determined during the oxidation of phenol red by H2O2, which was catalyzed with horseradish peroxidase and measured at the 610 nm wavelength. Indirect measurement of nitrites was performed by the precipitation of samples with 30% sulfo-salicylic acid, followed by vortexing and centrifugation at 3000 rpm for 15 min. The equal volumes of isolated supernatant and Griess’ reagent (containing 1% sulfanilamide in 5% phosphoric acid/0.1% naphthalene ethylenediamine-dihydrochloride) were incubated for 10 min and measured at the 550 nm wavelength. The TBARS concentration was determined by adding 400 µL of sample to 200 µL of TBA in 0.05 M NaOH, followed by 15 min incubation at 100 °C. Measurement was performed at the 530 nm wavelength.
The epinephrine method was used for SOD determination. By adding 100 µL of sample, the same volume of epinephrine, and 1000 µL of carbonate buffer, the measurement was performed at the 470 nm wavelength. The determination of CAT activity was based on the preparation of a mixture containing 100 µL of sample, 50 µL of catalase buffer, and 1000 µL of 10 mM H2O2, which was measured at the 230 nm wavelength.

SMILES | IC50 (COX-1) | % of inhibition of paw edema, 1 h [1] | Rat paw thickness, 1 h [1] | % of inhibition of paw edema, 2 h [1] | Rat paw thickness, 2 h [1] | % of inhibition of paw edema, 3 h [1] | Rat paw thickness, 3 h [1] | % of inhibition of paw edema, 4 h [1] | Rat paw thickness, 4 h [1] | Anti-inflammatory effect on edema diameter compared to the control group (significance) [1] | Rat paw thickness, 0 h [1] | Systemic SOD activity compared to Dex group ([2]; erythrocyte lysate) | Systemic O2∙− level compared to Dex group ([2]; plasma) | Systemic TBARS level compared to Dex group ([2]; plasma) | Systemic TBARS level compared to Sol (untreated) rats ([2]; plasma) | Systemic CAT activity compared to Dex group ([2]; erythrocyte lysate) | Systemic GSH level compared to untreated rats ([2]; erythrocyte lysate) | Systemic O2∙− level compared to untreated (Sol) rats ([2]; plasma) | Systemic GSH level compared to Dex group ([2]; erythrocyte lysate) | Systemic H2O2 level compared to Dex group ([2]; plasma)
C[C@H](C(=O)NCC(=O)O)c1cccc(C(=O)c2ccccc2)c1 [Compound 1, (S)-(2-(3-benzoylphenyl)propanoyl)glycine] | > 100 µM | 5.263% | 5.68 ± 0.25 mm | 13.669% | 5.58 ± 0.34 mm | 16.842% | 5.16 ± 0.34 mm | 18.824% | 4.50 ± 0.29 mm | did not achieve an anti-inflammatory effect at any measurement times | 3.58 ± 0.13 mm | significantly lower activity | significantly higher concentration | dexketoprofen injection significantly decreased the TBARS concentration compared to the Sol group, as well as rats treated with compounds 1, 3, and 4 | significantly reducing |  |  |  |  | 
C[C@H](NC(=O)[C@@H](C)c1cccc(C(=O)c2ccccc2)c1)C(=O)O [Compound 2, ((S)-2-(3-benzoylphenyl)propanoyl)-L-alanine] | > 100 µM | 16.090% | 6.52 ± 0.28 mm | 26.619% | 6.36 ± 0.25 mm | 33.684% | 5.92 ± 0.19 mm | 62.941% | 5.08 ± 0.54 mm | significantly reduced the edema diameter | 4.66 ± 0.13 mm | no statistical differences | no significant difference |  |  | highest potential to increase CAT activity | significantly increased GSH level | significantly lower |  | 
C[C@H](C(=O)N[C@@H](Cc1ccccc1)C(=O)O)c1cccc(C(=O)c2ccccc2)c1 [Compound 3, ((S)-2-(3-benzoylphenyl)propanoyl)-L-phenylalanine] | > 100 µM | 10.526% | 6.25 ± 0.25 mm | 20.863% | 6.10 ± 0.18 mm | 22.807% | 5.73 ± 0.23 mm |  | 4.93 ± 0.37 mm |  | 4.27 ± 0.21 mm | significantly lower activity | no significant difference | dexketoprofen injection significantly decreased the TBARS concentration compared to the Sol group, as well as rats treated with compounds 1, 3, and 4 |  |  |  | significantly lower |  | 
C[C@H](C(=O)N[C@@H](Cc1c[nH]c2ccccc12)C(=O)O)c1cccc(C(=O)c2ccccc2)c1 [Compound 4, ((S)-2-(3-benzoylphenyl)propanoyl)-L-tryptophan] | > 100 µM | 15.038% | 5.90 ± 0.37 mm | 24.460% | 5.77 ± 0.36 mm | 28.070% | 5.38 ± 0.34 mm | 58.824% | 4.48 ± 0.33 mm | significantly reduced the edema diameter | 4.02 ± 0.12 mm | significantly lower activity | significantly higher concentration | dexketoprofen injection significantly decreased the TBARS concentration compared to the Sol group, as well as rats treated with compounds 1, 3, and 4 |  | decreased this enzyme activity |  |  | significantly reduced | 
C[C@H](C(=O)NCCCC(=O)O)c1cccc(C(=O)c2ccccc2)c1 [Compound 5, (S)-4-(2-(3-benzoylphenyl)propanamido)butanoic acid] | > 100 µM | 7.068% | 5.52 ± 0.25 mm | 17.122% | 5.38 ± 0.48 mm | 18.947% | 5.00 ± 0.29 mm | 27.647% | 4.28 ± 0.37 mm |  | 3.46 ± 0.29 mm | no statistical differences | no significant difference |  | significantly reducing |  | significantly increased GSH level | significantly lower |  | did not differ significantly
